# Measured values from paper PMC11150392, “Structure and mechanism of the K^+/H^+ exchanger KefC” (Nature Communications, 2024).
# Target: T1, KefC WT* (Escherichia coli, UniProt P03819)
# T1 construct: lacks final 60 C-terminal residues (WT*); C-terminal TEV-GFP-His8, cleaved for cryo-EM, kept in FSEC stability assays; expressed in E. coli Lemo21(DE3)-type host; homodimer in DDM/GDN
# T1 sequence (P03819 1-560): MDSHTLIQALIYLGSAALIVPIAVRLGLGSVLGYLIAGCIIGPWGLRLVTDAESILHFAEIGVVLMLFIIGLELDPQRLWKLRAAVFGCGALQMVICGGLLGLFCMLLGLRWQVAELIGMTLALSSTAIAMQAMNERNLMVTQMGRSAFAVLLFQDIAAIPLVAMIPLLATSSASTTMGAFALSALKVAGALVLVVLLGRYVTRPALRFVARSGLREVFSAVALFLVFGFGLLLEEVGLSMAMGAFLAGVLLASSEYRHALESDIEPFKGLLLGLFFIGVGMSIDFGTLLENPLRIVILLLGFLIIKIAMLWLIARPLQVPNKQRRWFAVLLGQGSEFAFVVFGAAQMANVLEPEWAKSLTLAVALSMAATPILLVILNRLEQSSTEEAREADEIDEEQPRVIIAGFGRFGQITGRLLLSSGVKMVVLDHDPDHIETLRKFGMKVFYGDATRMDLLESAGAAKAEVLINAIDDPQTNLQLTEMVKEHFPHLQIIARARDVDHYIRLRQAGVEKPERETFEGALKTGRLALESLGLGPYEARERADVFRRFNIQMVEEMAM
# Assay: FSEC thermostabilization of purified GFP fusion
# Type: binding
# Conditions: 40 °C 10 min, 1% beta-OG, DDM, 1 mM AMP, pH 7.5; dimer interface; Supplementary Fig. 5b; PG modelled (PGW), map density not unambiguous
smiles,measurement,value
CCCCCCCC/C=C\CCCCCCCC(=O)OC[C@H](COP(=O)(O)OCC(O)CO)OC(=O)CCCCCCC/C=C\CCCCCCCC (stereo partly shown) [DOPG],FSEC thermostabilization of purified GFP fusion,The clearest thermostabilization of the KefC homodimer was observed upon addition of PG lipids
